The source of these data is a melting point compilation (Tetko et al.).

The compound `O=C(CCl)Nc1cccc(S(=O)(=O)N=C2CCCCCN2)c1` yielded a melting point of 133 to 135 °C.

As for `NC1CCCOc2ccccc21` (stereo not given), the melting point was in the range of 69 to 71 °C.

With `Cc1c(N)cccc1S(N)(=O)=O`, the melting point lay in the range of 212 to 214 °C.

With `CNCc1nnc[nH]1`, the melting point lay in the range of 91 to 93 °C.

For the compound `CS(=O)(=O)c1cccc(Cl)c1C(=O)O`, the melting point fell in the range of 147 to 149 °C.

As for `O=C(O)C1SCCc2ccccc21` (stereo not given), the melting point lay in the range of 130 to 132 °C.

`COc1ccccc1NS(=O)(=O)c1ccc(C(=O)O)cc1` had a melting point of 201 to 203 °C.

With `CCOc1ccccc1-c1cc(C(=O)O)n[nH]1`, the melting point was in the range of 224 to 226 °C.

Regarding `COc1ccc(C(=O)O)cc1-c1ccccc1`, the melting point was 220 to 222 °C.

The compound `CNS(=O)(=O)c1ccc(CN)cc1` yielded a melting point of 111 to 113 °C.

Compound `CN(C)S(=O)(=O)c1ccccc1C#N` yielded a melting point of 57 to 59 °C.

As to `NCC1(Nc2ccccc2)CCCCC1`, the melting point fell in the range of 61 to 63 °C.

`CC(NC(=O)CC(F)(F)F)C(=O)O` (stereo not given) had a melting point of 105 to 107 °C.

`O=C(O)Cc1c[nH]c2cccc(Br)c12` registered a melting point of 184 to 186 °C.

Turning to `O=C(O)c1ccc(=O)n(-c2ccc(F)cc2)c1`, the melting point fell in the range of 299 to 301 °C.

In turn, `NC(=O)c1cccc(S(=O)(=O)Cl)c1` yielded a melting point of 78 to 80 °C.

In turn, `Nc1nc(CCl)nc2sc3c(c12)CCCC3` gave a melting point of 174 to 176 °C.

`O=C(O)c1cccc([N+](=O)[O-])c1Br` had a melting point of 184 to 186 °C.

The compound `COC(=O)c1cc2ccc(F)cc2s1` came in with a melting point of 88 to 90 °C.

With `O=C1CCc2ccc(F)cc2N1`, the melting point lay within 187 to 189 °C.

`O=Cc1cnc2ccccn12`: the melting point lay within 118 to 120 °C.

`O=C(c1cc(Br)c[nH]1)N1CCCC1` displayed a melting point of 210 to 212 °C.

Compound `O=Cc1cn(Cc2ccccc2)nc1-c1cccs1` came in with a melting point of 90 to 91 °C.

In the case of `NC(=S)c1cccc(S(N)(=O)=O)c1`, the melting point was in the range of 152 to 154 °C.

In turn, `CCc1oc2ccccc2c1C(=O)O` showed a melting point of 89 to 91 °C.

As for `Fc1ccc(-c2n[nH]cc2Br)cc1`, the melting point was in the range of 141 to 143 °C.

Regarding `NC(=O)c1cncc(Cl)n1`, the melting point lay in the range of 166 to 168 °C.

Compound `Nc1ccc(C(=O)N2CCCc3ccccc32)cc1` showed a melting point of 210 to 212 °C.

The compound `O=S(=O)(c1ccc(Cl)nc1)N1CCOCC1` yielded a melting point of 143 to 145 °C.

Compound `CNS(=O)(=O)c1cc(Br)ccc1C` showed a melting point of 105 to 107 °C.

As for `Cc1nnc(NN)[nH]c1=O`, the melting point fell in the range of 237 to 239 °C.

Compound `COc1ccc(Cl)cc1N1CC(C(=O)O)CC1=O` (stereo not given) came in with a melting point of 150 to 155 °C.

`O=S(=O)(Cl)c1ccc(OCC2CCCCO2)cc1` (stereo not given) registered a melting point of 64 to 66 °C.

`O=C1C(Br)CCN1c1c(F)cccc1F` (stereo not given) displayed a melting point of 79 to 81 °C.

With `CC(=O)N[C@@H](CC(=O)O)C(N)=O`, the melting point lay within 159 to 161 °C.

In turn, `O=C(O)c1ccc(OC2CCC2)cc1Cl` returned a melting point of 127 to 129 °C.

`CS(=O)(=O)c1cccs1` gave a melting point of 43 to 45 °C.

In turn, `C#CCNC(=O)c1ccc(Cl)nc1` yielded a melting point of 139 to 141 °C.

For the compound `O=C(O)c1ccc(N2C(=O)CCC2=O)cc1`, the melting point was 210 to 212 °C.

Take `COC(=O)c1cc(Cl)c(N)cc1OC`: the melting point fell in the range of 124 to 126 °C.

`Cc1cc(Br)cc2c1NC(=O)C2=O` gave a melting point of 298 to 300 °C.

Regarding `CC(COc1ccccc1)C(=O)O` (stereo not given), the melting point lay within 84 to 86 °C.

Consider `Nc1ccc(CN2C(=O)CNC2=O)cc1`, for which the melting point was 168 to 170 °C.

`C=CCOc1ccc(O)cc1` yielded a melting point of 36 to 38 °C.

`Cc1ccc(C(=O)c2ccccc2Cl)cc1`: the melting point fell in the range of 90 to 92 °C.

Compound `O=C(O)c1sc2cc(Br)ccc2c1Cl` registered a melting point of 286 to 288 °C.

With `Cc1ccc(N)c2cccnc12`, the melting point is 144 to 146 °C.

In turn, `O=C(O)CN(C(=O)c1ccc(Br)o1)c1ccccc1` returned a melting point of 129 to 131 °C.

Turning to `COc1cc(C=O)cc(OC)c1OCc1ccccc1`, the melting point lay in the range of 62 to 64 °C.

`CCOC(=O)CS(=O)(=O)Cc1ccccc1` showed a melting point of 49 to 51 °C.

`Cc1cc(C(=O)CCl)c(C)n1CC(N)=O` registered a melting point of 218 to 220 °C.

In turn, `O=C1CCCCN1c1ccc(Br)cc1F` showed a melting point of 96 to 98 °C.

`O=C(O)C1CSCN1C(=O)C1CCC1` (stereo not given) gave a melting point of 115 to 117 °C.

In turn, `O=C1CCc2cc([N+](=O)[O-])ccc2N1` displayed a melting point of 201 to 203 °C.

Compound `O=C(O)C1CC(=O)N(Cc2cccc(C(F)(F)F)c2)C1` (stereo not given) showed a melting point of 109 to 111 °C.

With `COc1cc(N)ccc1S(=O)(=O)N1CCCC1`, the melting point is 145 to 147 °C.

On to `Cc1ccccc1Sc1ccc(C(=O)O)cc1`, for which the melting point was 178 to 180 °C.

`O=C(O)c1ccc(S(=O)(=O)C(F)(F)F)cc1` came in with a melting point of 244 to 246 °C.

As for `Oc1cccc(-c2nccc(Cl)n2)c1`, the melting point was in the range of 135 to 137 °C.

`NCCCNC(=O)c1cccc(Br)c1` came in with a melting point of 52 to 54 °C.

As for `COc1cccc(-c2cc(N)n(-c3ccccc3)n2)c1`, the melting point was in the range of 112 to 114 °C.

For `COc1ccc(-c2cc(C(=O)O)c3ccccc3n2)cc1OC`, the melting point was 234 to 236 °C.

Consider `O=C(O)CCCNS(=O)(=O)c1ccc2c(c1)CCCC2`, for which the melting point is 130 to 132 °C.

For the compound `N=C1NS(=O)(=O)Cc2ccccc21`, the melting point was 264 to 266 °C.

For the compound `COc1ccc2c(CCl)cc(=O)oc2c1`, the melting point lay within 189 to 191 °C.

In turn, `CN1C(=O)c2ccc(C(=O)O)cc2S1(=O)=O` had a melting point of 249 to 251 °C.

Regarding `O=C(NCCO)c1ccccc1C(F)(F)F`, the melting point was in the range of 61 to 63 °C.

Consider `OCc1cccc(F)c1Cl`, for which the melting point lay within 34 to 36 °C.

Compound `Nn1c(S)nnc1C1CCOC1` (stereo not given) had a melting point of 116 to 118 °C.

`Cc1ccc(S(=O)(=O)Cl)cc1C(=O)O` had a melting point of 149 to 151 °C.

In turn, `NCCNS(=O)(=O)Cc1ccon1` displayed a melting point of 89 to 91 °C.

Compound `O=C(CCl)NCCc1nc2ccccc2s1` registered a melting point of 90 to 92 °C.

With `Nc1ccc(Cc2nc3ccccc3s2)cc1`, the melting point lay within 219 to 221 °C.

`O=C(CCl)Cc1c(F)cccc1Cl` showed a melting point of 37 to 39 °C.

`OCc1cc(F)cc(CO)c1O`: the melting point lay in the range of 119 to 121 °C.

On to `O=C(O)C1C2C=CC(C2)C1C(=O)N1CCN(CCO)CC1` (stereo not given), for which the melting point lay in the range of 192 to 194 °C.

For `Cn1ccnc1-c1noc(N)n1`, the melting point fell in the range of 197 to 199 °C.

Turning to `CCC1CCc2[nH]c(=O)c(C#N)cc2C1` (stereo not given), the melting point lay within 224 to 226 °C.

On to `O=C1C=CC(=O)N1c1cc(Cl)cc(Cl)c1`, for which the melting point was 139 to 141 °C.

In the case of `Cc1ccc(N)c(-c2nc(C3CC3)no2)c1`, the melting point lay in the range of 87 to 89 °C.

In turn, `COc1ccc(-c2ccc(CCC(=O)O)o2)cc1` gave a melting point of 142 to 144 °C.

The compound `CC(=O)c1ccc2c(c1)CC(=O)N2` registered a melting point of 217 to 219 °C.

In the case of `COc1cn(-c2cccc(C(F)(F)F)c2)nc1C(=O)O`, the melting point was in the range of 149 to 151 °C.

The compound `O=C(O)C1Cc2ccccc2CN1S(=O)(=O)c1ccc(F)cc1` (stereo not given) came in with a melting point of 99 to 101 °C.

In turn, `CCN(C(=O)CCl)c1nc2ccccc2s1` yielded a melting point of 233 to 235 °C.

`CCOC(=O)c1sc(-c2ccc(OC)cc2)cc1N` yielded a melting point of 120 to 122 °C.

Regarding `COc1ccc(-c2cc(C(=O)O)c3sc(N4CCCCC4)nc3n2)cc1OC`, the melting point lay in the range of 284 to 286 °C.

In the case of `CCN(Cc1ccccc1N)C(C)=O`, the melting point is 79 to 81 °C.

For `COC(=O)/C(C#N)=C/c1ccc(OC)cc1`, the melting point fell in the range of 105 to 107 °C.

Turning to `CC(C)c1cc(C(C)C)c([N+](=O)[O-])cc1[N+](=O)[O-]`, the melting point lay in the range of 77 to 79 °C.

For `COC(=O)C(C#N)c1nc2ccccc2nc1Cl` (stereo not given), the melting point was 197 to 199 °C.

Consider `COc1ccc(-n2cnnc2S)cn1`, for which the melting point was in the range of 199 to 201 °C.

Turning to `O=C(O)c1cc(-c2cccnc2)nc2ccccc12`, the melting point lay within 323 to 325 °C.

With `CN(C)c1ccc(Br)c(S(=O)(=O)Cl)c1`, the melting point was 111 to 113 °C.

With `CC=Cc1ccc(OCCCC(=O)OC)c(OC)c1`, the melting point is 38 to 40 °C.

`CCc1n[nH]c(N)n1` returned a melting point of 154 to 156 °C.

Take `NC(CC(=O)Nc1ccccc1)=NO`: the melting point lay in the range of 156 to 158 °C.

`O=C(c1cccnc1O)N1CCCNCC1` returned a melting point of 157 to 159 °C.

`Fc1cccc2cc(I)cnc12` yielded a melting point of 77 to 79 °C.

Compound `N#Cc1c[nH]c2ccc(Cl)cc2c1=O` gave a melting point of 381 to 383 °C.

`CC(C)c1cnc(-c2ccc([N+](=O)[O-])cc2)o1`: the melting point was 103 to 105 °C.

`Cn1ncc(C(=O)O)c1-c1ccccc1` had a melting point of 213 to 215 °C.

Consider `O=C(CCl)NC(=O)NC1CCS(=O)(=O)C1` (stereo not given), for which the melting point was in the range of 173 to 175 °C.

As for `O=C1NCCNC1c1ccc(C(F)(F)F)cc1` (stereo not given), the melting point was in the range of 141 to 143 °C.

`O=C(O)c1ccccc1Oc1cccnc1` had a melting point of 134 to 136 °C.

On to `COc1ccc(NC(=O)Cn2cc(N)cn2)cc1`, for which the melting point fell in the range of 151 to 153 °C.

In turn, `COc1ccc(Cl)cc1CS(=O)(=O)Cl` showed a melting point of 69 to 71 °C.

In turn, `N#Cc1ccc(N2CCN(c3ccccn3)CC2)nc1` yielded a melting point of 165 to 167 °C.

With `Cn1cc(C(=O)NN)cn1`, the melting point lay within 179 to 181 °C.

In turn, `COC(=O)c1cnc(Cl)c(S(=O)(=O)N2CCOCC2)c1` had a melting point of 132 to 134 °C.

Consider `Nc1ccc2[nH]c(CC3CCCCC3)nc2c1`, for which the melting point lay within 267 to 269 °C.

`O=C1N(Cc2ccccc2)CCN1S(=O)(=O)Cl` registered a melting point of 112 to 114 °C.

The compound `CC(=O)c1ccc(N2CCNCC2)c(F)c1` registered a melting point of 104 to 106 °C.

As to `NCc1ccc(Cn2cnc3ccccc32)cc1`, the melting point lay within 72 to 74 °C.

`COc1ccc(C(=O)O)cc1-c1ccnn1C` registered a melting point of 225 to 227 °C.

In turn, `Cc1n[nH]c(C)c1S(=O)(=O)N1CCN(C)CC1` showed a melting point of 187 to 189 °C.

`Cc1c(Br)cc(S(=O)(=O)Cl)cc1C(=O)O`: the melting point was 167 to 169 °C.

For `Nc1ccc2c(c1)NC(=O)CS2`, the melting point lay within 218 to 222 °C.

Regarding `Nc1ncc(Cc2ccc(F)c(F)c2)s1`, the melting point lay in the range of 97 to 99 °C.

Compound `CC(=O)c1c(C)cc(C)c(CCl)c1C` yielded a melting point of 74 to 76 °C.

One may read the melting point as the temperature of the solid-liquid transition.
